Data: PMC5564715, “Acetyl-CoA carboxylase inhibitors attenuate WNT and Hedgehog signaling and suppress pancreatic tumor growth” (Oncotarget, 2016)

Tests used:
ACC1 = biological target: T1, ACC1 (Homo sapiens, UniProt Q13085); assay: ACC1 inhibition IC50 (assay details not given; Supplementary Figure S1A); type: biochemical
T1 construct: gene ACACA

ACC2 = biological target: T2, ACC2 (Homo sapiens, UniProt O00763); assay: ACC2 inhibition IC50 (assay details not given; Supplementary Figure S1A); type: biochemical
T2 construct: gene ACACB
T2 sequence (O00763 whole entry): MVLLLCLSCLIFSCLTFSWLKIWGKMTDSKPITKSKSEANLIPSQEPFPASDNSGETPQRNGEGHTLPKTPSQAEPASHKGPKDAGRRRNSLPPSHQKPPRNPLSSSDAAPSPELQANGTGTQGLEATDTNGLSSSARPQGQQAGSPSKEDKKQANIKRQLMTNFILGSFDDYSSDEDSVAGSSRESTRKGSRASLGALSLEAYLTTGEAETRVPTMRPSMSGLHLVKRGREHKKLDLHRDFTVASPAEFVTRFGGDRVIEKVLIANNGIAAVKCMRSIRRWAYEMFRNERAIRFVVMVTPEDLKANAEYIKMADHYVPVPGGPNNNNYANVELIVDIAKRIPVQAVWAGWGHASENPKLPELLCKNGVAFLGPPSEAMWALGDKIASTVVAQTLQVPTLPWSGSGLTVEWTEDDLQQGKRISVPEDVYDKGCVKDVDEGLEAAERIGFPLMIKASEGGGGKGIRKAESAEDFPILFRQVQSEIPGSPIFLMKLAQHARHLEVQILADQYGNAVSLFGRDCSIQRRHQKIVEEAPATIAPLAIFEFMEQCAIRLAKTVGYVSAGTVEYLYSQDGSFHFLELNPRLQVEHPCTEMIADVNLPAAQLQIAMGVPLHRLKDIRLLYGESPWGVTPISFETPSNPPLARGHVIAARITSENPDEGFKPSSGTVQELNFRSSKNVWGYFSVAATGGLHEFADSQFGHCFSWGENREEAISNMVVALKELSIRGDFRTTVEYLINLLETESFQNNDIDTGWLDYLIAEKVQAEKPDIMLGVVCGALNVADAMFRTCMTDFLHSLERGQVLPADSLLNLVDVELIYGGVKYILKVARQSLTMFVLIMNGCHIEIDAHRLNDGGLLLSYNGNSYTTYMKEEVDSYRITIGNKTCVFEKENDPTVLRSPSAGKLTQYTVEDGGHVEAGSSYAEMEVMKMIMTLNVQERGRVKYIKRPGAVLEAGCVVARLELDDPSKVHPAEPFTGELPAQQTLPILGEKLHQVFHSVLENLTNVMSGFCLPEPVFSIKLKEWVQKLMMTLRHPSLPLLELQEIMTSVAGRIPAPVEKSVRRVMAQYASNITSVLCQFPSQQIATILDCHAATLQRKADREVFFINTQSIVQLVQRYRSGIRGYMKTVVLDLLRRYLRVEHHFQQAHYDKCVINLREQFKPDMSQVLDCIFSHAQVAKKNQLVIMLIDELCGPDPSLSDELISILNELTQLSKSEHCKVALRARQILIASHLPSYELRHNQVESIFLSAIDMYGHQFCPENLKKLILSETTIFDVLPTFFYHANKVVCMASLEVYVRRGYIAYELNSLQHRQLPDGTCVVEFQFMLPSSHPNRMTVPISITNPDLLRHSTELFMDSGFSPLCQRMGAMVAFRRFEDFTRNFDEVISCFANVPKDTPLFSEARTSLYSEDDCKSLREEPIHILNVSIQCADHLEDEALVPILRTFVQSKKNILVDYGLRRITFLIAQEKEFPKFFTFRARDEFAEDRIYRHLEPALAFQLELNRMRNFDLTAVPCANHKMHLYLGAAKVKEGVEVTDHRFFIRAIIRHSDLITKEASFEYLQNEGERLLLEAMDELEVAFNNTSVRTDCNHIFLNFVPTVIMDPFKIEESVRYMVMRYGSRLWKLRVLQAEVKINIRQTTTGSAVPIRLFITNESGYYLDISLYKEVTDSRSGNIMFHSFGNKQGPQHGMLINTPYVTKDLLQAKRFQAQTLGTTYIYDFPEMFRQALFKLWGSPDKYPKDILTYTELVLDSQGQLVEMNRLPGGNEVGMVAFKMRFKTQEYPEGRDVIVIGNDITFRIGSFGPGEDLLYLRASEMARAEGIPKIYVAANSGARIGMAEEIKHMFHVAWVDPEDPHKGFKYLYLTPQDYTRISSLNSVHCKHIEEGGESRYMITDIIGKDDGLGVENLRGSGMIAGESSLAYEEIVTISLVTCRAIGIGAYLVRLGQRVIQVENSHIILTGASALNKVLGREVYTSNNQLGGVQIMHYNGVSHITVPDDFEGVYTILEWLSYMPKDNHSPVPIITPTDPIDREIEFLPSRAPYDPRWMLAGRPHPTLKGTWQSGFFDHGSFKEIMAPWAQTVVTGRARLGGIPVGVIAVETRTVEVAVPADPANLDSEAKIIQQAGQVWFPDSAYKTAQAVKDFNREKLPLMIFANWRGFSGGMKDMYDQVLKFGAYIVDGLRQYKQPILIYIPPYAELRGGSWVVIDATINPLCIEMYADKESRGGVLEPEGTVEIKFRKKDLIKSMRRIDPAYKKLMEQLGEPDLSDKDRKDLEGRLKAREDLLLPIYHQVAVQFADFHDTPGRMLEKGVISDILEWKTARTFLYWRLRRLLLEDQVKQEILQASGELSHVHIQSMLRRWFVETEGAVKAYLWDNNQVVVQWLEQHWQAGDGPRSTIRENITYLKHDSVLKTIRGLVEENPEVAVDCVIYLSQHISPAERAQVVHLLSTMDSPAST

| Substance | IC50 (ACC1) [nM] | IC50 (ACC2) [nM] |
| --- | --- | --- |
| BAY ACC001 | 280 | 2600 |
| BAY ACC002 | 100 | 1400 |
